The record followed here is ChEMBL document CHEMBL5154762, “Design, synthesis, and tumor drug resistance reversal activity of novel hederagenin derivatives modified by nitrogen-containing heterocycles” (Eur J Med Chem, 2022).

Series [1] is described as follows: Cytotoxicity against human KBV cells assessed as decrease in cell survival rate at 10 uM measured after 72 hrs by MTT assay. The class given is functional. As to conditions: read-out: Survival.
The nature of series [2]: Cytotoxicity against human KBV cells assessed as decrease in cell survival rate at 10 uM measured after 72 hrs in presence of paclitaxel by MTT assay. As to conditions: read-out: Survival. The class given is functional. On the technique in general: Tetrazolium dyes change colour on reduction, which living cells bring about.
Series [3] can be described thus: Induction of cell cycle arrest in human KBV cells assessed as accumulation at sub-G0 phase measured after 24 hrs by propidium iodide/RNase staining based flow cytometry analysis (reference value: 6.18%). Format: functional.
Series [4] can be described thus: Toxicity in BALB/c mouse xenografted with human KBV cells assessed as change in body weight at 10 mg/kg, ip qd administered presence of paclitaxel. As to conditions: in vivo. Format: organism-based. (In general: In xenograft studies the graft and the host belong to different species.)
Series [5] deals with KBV. The series is described as follows: Induction of cell cycle arrest in human KBV cells assessed as accumulation at G2/M phase measured after 24 hrs by propidium iodide/RNase staining based flow cytometry analysis. Format: functional. (Flow cytometry measures light scatter and fluorescence of single cells or particles in a stream.)
Series [6] can be described thus: Antitumor activity against human KBV cells xenografted in BALB/c mouse assessed as tumor suppression rate at 10 mg/kg, ip qd administered in presence of paclitaxel. Format: functional.
The target of series [7] is ATP-dependent translocase ABCB1 (Homo sapiens, UniProt P08183). The series is described as follows: Inhibition of P-glycoprotein mediated Rhodamine-123 efflux in human KBV cells assessed as increase in rhodamine-123 accumulation incubated for 3 hrs in presence of rhodamine-123 by flow cytometry analysis. Format: cell-based. The note with it: DDE = dose-dependent effect.
Chain of ATP-dependent translocase ABCB1 (P08183 whole entry): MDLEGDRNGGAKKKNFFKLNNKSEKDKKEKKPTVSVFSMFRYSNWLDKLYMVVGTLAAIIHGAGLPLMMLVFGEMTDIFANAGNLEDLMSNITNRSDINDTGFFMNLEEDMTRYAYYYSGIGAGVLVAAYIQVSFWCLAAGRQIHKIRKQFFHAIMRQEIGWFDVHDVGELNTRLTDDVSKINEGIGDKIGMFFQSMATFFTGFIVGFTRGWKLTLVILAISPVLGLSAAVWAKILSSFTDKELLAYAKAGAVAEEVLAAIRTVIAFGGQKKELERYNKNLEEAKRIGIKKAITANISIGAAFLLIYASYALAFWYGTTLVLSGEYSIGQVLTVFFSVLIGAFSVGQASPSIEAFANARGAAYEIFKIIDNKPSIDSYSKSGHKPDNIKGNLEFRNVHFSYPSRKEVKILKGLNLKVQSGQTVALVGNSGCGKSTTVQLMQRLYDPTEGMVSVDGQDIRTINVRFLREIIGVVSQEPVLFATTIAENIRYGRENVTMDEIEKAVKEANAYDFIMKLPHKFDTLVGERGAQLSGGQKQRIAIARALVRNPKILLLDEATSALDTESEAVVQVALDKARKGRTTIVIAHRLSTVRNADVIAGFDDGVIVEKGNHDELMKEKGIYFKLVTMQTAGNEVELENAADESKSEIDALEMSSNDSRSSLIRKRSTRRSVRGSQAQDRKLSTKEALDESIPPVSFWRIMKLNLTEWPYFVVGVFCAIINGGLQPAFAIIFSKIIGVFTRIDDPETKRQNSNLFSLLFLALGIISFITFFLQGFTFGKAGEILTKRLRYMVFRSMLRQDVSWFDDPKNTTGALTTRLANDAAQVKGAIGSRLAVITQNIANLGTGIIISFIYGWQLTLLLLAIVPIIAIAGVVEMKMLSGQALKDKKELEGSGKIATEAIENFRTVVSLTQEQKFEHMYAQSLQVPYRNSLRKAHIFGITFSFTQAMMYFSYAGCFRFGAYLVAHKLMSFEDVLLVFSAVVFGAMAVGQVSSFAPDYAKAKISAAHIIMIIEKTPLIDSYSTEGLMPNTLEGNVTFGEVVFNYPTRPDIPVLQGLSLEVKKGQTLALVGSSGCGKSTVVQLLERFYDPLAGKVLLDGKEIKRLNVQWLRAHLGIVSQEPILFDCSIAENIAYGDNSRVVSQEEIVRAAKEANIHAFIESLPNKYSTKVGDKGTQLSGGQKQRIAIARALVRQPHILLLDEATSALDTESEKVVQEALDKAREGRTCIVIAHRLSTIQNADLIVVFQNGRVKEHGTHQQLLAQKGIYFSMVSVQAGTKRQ

Series [8] deals with KBV. The series is described as follows: Induction of apoptosis in human KBV cells at 10 uM measured after 24 hrs in presence of paclitaxel by flow cytometry analysis. The class given is functional, cell-based.
Series [9] can be described thus: Cytotoxicity against human KBV cells assessed as decrease in cell survival rate at 100 nM measured after 72 hrs by MTT assay. Format: functional. The note with it: read-out: Survival.
Series [10] can be described thus: Antitumor activity against human KBV cells xenografted in BALB/c mouse assessed as tumor suppression rate at 30 mg/kg administered once every three days. Format: functional.

Calls of active or inactive are those of the source. No cut-off for these calls is given here.

`CC1(C)CC[C@]2(C(=O)OCc3ccccc3)CC[C@]3(C)C(=CC[C@@H]4[C@@]5(C)Cc6cnoc6[C@@](C)(COC(=O)CCC(=O)N6CCOCC6)[C@@H]5CC[C@]43C)[C@@H]2C1`: the results for the viability at 10 µM in [1] and in series [2] were 89.6% and 34.1%, respectively.

On to `CC1(C)CC[C@]2(C(=O)OCc3cccc(Cl)c3)CC[C@]3(C)C(=CC[C@@H]4[C@@]5(C)Cc6nccnc6[C@@](C)(CO)[C@@H]5CC[C@]43C)[C@@H]2C1`, for which the viability at 10 µM in [1] is 92%; in series [2], 30.8%.

On to `CC1(C)CC[C@]2(C(=O)OCc3ccccc3)CC[C@]3(C)C(=CC[C@@H]4[C@@]5(C)Cc6nccnc6[C@@](C)(CO)[C@@H]5CC[C@]43C)[C@@H]2C1`, for which the viability at 10 µM in series [2] was 25.3%.

In the case of `CC1(C)CC[C@]2(C(=O)OCc3ccccc3)CC[C@]3(C)C(=CC[C@@H]4[C@@]5(C)Cc6cnoc6[C@@](C)(COC(=O)CCC(=O)n6cccn6)[C@@H]5CC[C@]43C)[C@@H]2C1`, the viability at 10 µM in series [1] came out at 69.6%; in series [2] it was 63.1%.

As for `CC1(C)CC[C@]2(C(=O)OCc3ccccc3)CC[C@]3(C)C(=CC[C@@H]4[C@@]5(C)Cc6cnoc6[C@@](C)(COC(=O)CCC(=O)N6CCCC6)[C@@H]5CC[C@]43C)[C@@H]2C1`, the viability at 10 µM in [1] was determined as 99.4%; in series [2], 33.3%.

Consider `CCN1CCN(C(=O)CCC(=O)OC[C@]2(C)c3oncc3C[C@@]3(C)[C@H]2CC[C@]2(C)[C@@H]3CC=C3[C@@H]4CC(C)(C)CC[C@]4(C(=O)OCc4ccccc4)CC[C@]32C)CC1`, for which the results for the viability at 10 µM in series [1] and in series [2] were 67.5% and 26.5%, respectively. Besides, the Activity in series [3] is reported as 14.8%; in series [4] it was “Non-Toxic”; in series [6], 56.24%. In addition, the outcome in the series with KBV [5] and in the series on KBV [8] was Active. Besides, in [7], the “inhibition (INH)” value is reported as “Dde”.

As to `CC1(C)CC[C@]2(C(=O)O)CC[C@]3(C)C(=CC[C@@H]4[C@@]5(C)CC[C@H](O)[C@@](C)(CO)[C@@H]5CC[C@]43C)[C@@H]2C1` [HEDERAGENIN], in series [2], the viability at 10 µM amounted to 149%.

In the case of `CCOC(=O)c1noc2c1C[C@@]1(C)[C@@H](CC[C@]3(C)[C@@H]1CC=C1[C@@H]4CC(C)(C)CC[C@]4(C(=O)O)CC[C@]13C)[C@]2(C)CO`, the viability at 10 µM came to 93.9% in series [1] and 92.1% in series [2].

As for `CC(=O)O[C@H]1C(=O)[C@@]2(C)[C@H]([C@H](OC(=O)c3ccccc3)[C@]3(O)C[C@H](OC(=O)[C@H](O)[C@@H](NC(=O)c4ccccc4)c4ccccc4)C(C)=C1C3(C)C)[C@]1(OC(C)=O)CO[C@@H]1C[C@@H]2O` [PACLITAXEL], the viability at 0.1 µM in series [9] was 98.7%. In addition, the Activity in [10] is listed as 22.63%.

Consider `CCOC(=O)c1noc2c1C[C@@]1(C)[C@@H](CC[C@]3(C)[C@@H]1CC=C1[C@@H]4CC(C)(C)CC[C@]4(C(=O)OCc4ccccc4)CC[C@]13C)[C@]2(C)CO`, for which the viability at 10 µM in series [1] came to 102%; in series [2] it was 94.7%.

On to `CC1(C)CC[C@]2(C(=O)OCc3ccccc3)CC[C@]3(C)C(=CC[C@@H]4[C@@]5(C)Cc6cnoc6[C@@](C)(COC(=O)CCC(=O)n6ccnc6)[C@@H]5CC[C@]43C)[C@@H]2C1`, for which the viability at 10 µM in series [1] is 96.9%; in series [2] it was 48.6%.

For the compound `CN1CCN(C(=O)CCC(=O)OC[C@]2(C)c3oncc3C[C@@]3(C)[C@H]2CC[C@]2(C)[C@@H]3CC=C3[C@@H]4CC(C)(C)CC[C@]4(C(=O)OCc4ccccc4)CC[C@]32C)CC1`, the viability at 10 µM in [1] is 79.7%; in series [2] it was 32.5%.

For `CC1(C)CC[C@]2(C(=O)OCc3ccccc3)CC[C@]3(C)C(=CC[C@@H]4[C@@]5(C)Cc6cnoc6[C@@](C)(COC(=O)CCC(=O)O)[C@@H]5CC[C@]43C)[C@@H]2C1`, the viability at 10 µM came out at 34% in series [1] and 16.6% in series [2].

In the case of `CC1(C)CC[C@]2(C(=O)OCc3ccccc3F)CC[C@]3(C)C(=CC[C@@H]4[C@@]5(C)Cc6nccnc6[C@@](C)(CO)[C@@H]5CC[C@]43C)[C@@H]2C1`, the viability at 10 µM was found to be 107% in series [1] and 26.7% in series [2].

As for `CC1(C)CC[C@]2(C(=O)OCc3cccc(Br)c3)CC[C@]3(C)C(=CC[C@@H]4[C@@]5(C)Cc6nccnc6[C@@](C)(CO)[C@@H]5CC[C@]43C)[C@@H]2C1`, the viability at 10 µM stood at 39.8% in series [1] and 19.6% in series [2].

For the compound `CC1(C)CC[C@]2(C(=O)OCc3ccc(Br)cc3)CC[C@]3(C)C(=CC[C@@H]4[C@@]5(C)Cc6nccnc6[C@@](C)(CO)[C@@H]5CC[C@]43C)[C@@H]2C1`, the values for the viability at 10 µM in series [1] and in [2] were 109% and 34.2%, respectively.

For `CC1(C)CC[C@]2(C(=O)OCc3ccccc3)CC[C@]3(C)C(=CC[C@@H]4[C@@]5(C)Cc6cnoc6[C@@](C)(CO)[C@@H]5CC[C@]43C)[C@@H]2C1`, the viability at 10 µM was 140% in series [1] and 33.7% in [2].

Consider `CC1(C)CC[C@]2(C(=O)OCc3ccccc3)CC[C@]3(C)C(=CC[C@@H]4[C@@]5(C)Cc6cnoc6[C@@](C)(COC(=O)CCC(=O)N6CCCCC6)[C@@H]5CC[C@]43C)[C@@H]2C1`, for which the viability at 10 µM in [1] stood at 80.5%; in [2] it was 79.2%.

For `CC1(C)CC[C@]2(C(=O)OCc3ccc(F)cc3)CC[C@]3(C)C(=CC[C@@H]4[C@@]5(C)Cc6nccnc6[C@@](C)(CO)[C@@H]5CC[C@]43C)[C@@H]2C1`, the viability at 10 µM was found to be 94.9% in [1] and 83.3% in series [2].

`Cc1cccc(COC(=O)[C@]23CCC(C)(C)C[C@H]2C2=CC[C@@H]4[C@@]5(C)Cc6nccnc6[C@@](C)(CO)[C@@H]5CC[C@@]4(C)[C@]2(C)CC3)c1`: the viability at 10 µM in series [1] came out at 124%; in [2], 32.8%.

With `CC1(C)CC[C@]2(C(=O)OCc3ccccc3[N+](=O)[O-])CC[C@]3(C)C(=CC[C@@H]4[C@@]5(C)Cc6nccnc6[C@@](C)(CO)[C@@H]5CC[C@]43C)[C@@H]2C1`, the viability at 10 µM in series [1] came to 103%; in series [2], 27.1%.

For `Cc1ccccc1COC(=O)[C@]12CCC(C)(C)C[C@H]1C1=CC[C@@H]3[C@@]4(C)Cc5nccnc5[C@@](C)(CO)[C@@H]4CC[C@@]3(C)[C@]1(C)CC2`, the values for the viability at 10 µM in [1] and in series [2] were 99.7% and 27.5%, respectively.

For `CC1(C)CC[C@]2(C(=O)OCc3ccc([N+](=O)[O-])cc3)CC[C@]3(C)C(=CC[C@@H]4[C@@]5(C)Cc6nccnc6[C@@](C)(CO)[C@@H]5CC[C@]43C)[C@@H]2C1`, the values for the viability at 10 µM in series [1] and in series [2] were 91.9% and 29.6%, respectively.

For `CC1(C)CC[C@]2(C(=O)OCc3cccc(F)c3)CC[C@]3(C)C(=CC[C@@H]4[C@@]5(C)Cc6nccnc6[C@@](C)(CO)[C@@H]5CC[C@]43C)[C@@H]2C1`, the viability at 10 µM was determined as 110% in [1] and 35% in series [2].
